Experimental data as given in US20250027041A1, “COMPOSITION FOR INDUCING TRANSDIFFERENTIATION AND STEM CELLS TREATED THEREWITH” (YJ CERAPEUTICS INC., priority 2021, published 2025).

Legend:
CtBP1 [1] = molecular target: T1, CtBP1 (Homo sapiens, UniProt Q13363); test: DARTS assay, CtBP1; format: binding; design: expressed in transfected cells; host or cells: human UCB-MSC (Kang Stem Cell), lysate
Protocol: To identify proteins binding to compounds of the present invention, YJ101 (Chemical Formula 1), YJ102 (Chemical Formula 2), and YJ103 (Chemical Formula 3), in human umbilical cord blood-derived mesenchymal stem cells (UCB-MSCs), DART assay was performed. Specifically, UCB-MSCs (Kang Stem Cell, Passage #6) were dispensed into a 100 mm culture dish and incubated in a KSB-3 medium (Cat. K3901, Kang Stem Cell) containing 10% FBS (Cat. 16000044), and then collected and washed with PBS. Thereafter, the cells were added with an IP50 lysis buffer [50 mM Tris-HCl (pH 7.4), 150 mM NaCl, 2 mM MgCl2, and 0.1% NP40], sonicated, and centrifuged at 13,000×g for 10 minutes at 4° C. to obtain the supernatant. The supernatant was added with 1/10 volume of 10×TNC buffer [500 mM Tris-HCl (pH 8.0), 500 mM NaCl, and 100 mM CaCl2)], and protein concentration was measured using a Bradford method. Thereafter, 9 μl of a cell lysate and 1 μl of YJ101 (20 or M), YJ102 (20 or 30 μM), or YJ103 (20 or 40 μM) were mixed in a microcentrifuge tube and incubated at room temperature for 1 hour. A control group was treated with 1 μl of DMSO. After incubation, 1 μl (1 mg/ml) of Pronase (Cat. 10 165 921 001, Roche) diluted to 1 mg/ml using a 1×TNC buffer was added to the microcentrifuge tube and incubated at 37° C. for 15 minutes. After incubation, ⅕ volume of a 5×SDS-PAGE loading buffer was added, heated at 100° C. for 5 minutes, and then SDS-PAGE and Coomassie blue staining were performed. In addition, UCB-MSCs were dispensed at 4×10^5 cells/ml in a 60 mm culture dish, and after 24 hours, 4 μg of FLAG-CtBP1 or FLAG-CtBP2 DNA was transfected using 4 μl of jetPRIME. After 48 hours, the cells were collected, and proteins were extracted and quantified using the same method as above. DARTS assay was performed with the cell lysate of CtBP1 and Y102 labeled with FLAG, and Western blot assay was performed with a flag antibody (Cat. F3165, Sigma).

CtBP1 [2] = molecular target: T1, CtBP1; test: Immunoprecipitation, CtBP1 oligomerization in UCB-MSCs; format: cell-based; design: expressed in transfected cells; host or cells: human UCB-MSC; conditions: YJ102 20 μM; FLAG-CtBP1 + HA-CtBP1, 48 hours
Protocol: To determine the effect of YJ102 on the regulation of oligomerization of C-terminal Binding Proteins (CtBPs) in human UCB-MSCs, immunoprecipitation analysis was performed. Specifically, UCB-MSCs were dispensed at 4×10^5 cells/ml in a 60 mm culture dish, and the next day, FLAG-CtBP1, HA-CtBP1, FLAG-CtBP2, and HA-CtBP1 were transfected into cells using 4 μl jetPRIME. Thereafter, the cells were treated with YJ102 (stock 30 mM in DMSO) and MTOB (stock 300 mM in DMSO) at 20 μM and 300 μM, respectively (Table 1). After 48 hours of transfection, proteins were extracted in the same manner as in Example 1-1. Protein G agarose slurry was washed with PBS and blocked with 1 ml of 1% BSA, washed with PBS, and added with 1 μg of anti-HA antibody diluted with 1.5 ml of PBS and incubated at 4° C. for 2 hours. Thereafter, the cells were centrifuged at 3,000×g for 2 minutes to remove the supernatant, washed with an IP150 buffer two times, added with 1 μg of the protein extracted above, and incubated at 4° C. overnight. After incubation, the cells were centrifuged at 3,000×g for 2 minutes to remove the supernatant, washed with PBS three times, added with 50 μl of 1 mg/ml HA peptide diluted with PBS, and incubated at room temperature for 10 minutes. […]

## CCc1ccc(N(C(=O)COC)c2nc3cc(Cl)ccc3o2)cc1 [YJ102]
CtBP1 [1]; FLAG-CtBP1 transfected UCB-MSC lysate, YJ101 (20 or M), YJ102 (20 or 30 μM), YJ103 (20 or 40 μM)
  overexpressed CtBP1 (flag-CtBP1) protection from degradation by pronase (DARTS): protected
CtBP1 [1]; endogenous CtBP1, UCB-MSC lysate, YJ102 20 or 30 μM
  CtBP1 protection from degradation by pronase (DARTS): protected
CtBP1 [1]; human UCB-MSC
  binding to CtBP1: bound to CtBP1
CtBP1 [2]
  oligomerization of CtBP1: induced oligomerization
